Counter-ions that a name gives are not always drawn. Like-named read-outs stand apart in the source and are kept apart here. Values belong to the compound of their own block, whether it stands above or below them.
Experiments:
[1] = Solubility of the isolated product
[2] = system: blood platelet aggregation; assay: Anti-aggregation action in rats (graded / in words); assay type: in vivo; parameters: key to Anti-aggregation action: -: zero activity; +: significant activity; ++: intense activity; +++: very intense activity
Description: (b) by ADP: the inhibition of aggregation (that is to say the % transmission).

Clinical tests in man = assay type: in vivo; settings: for treatment of hyperlipidaemia: man
Description: The clinical tests have made it possible to confirm the pharmacological tests. Thus, in man, CRL 40,293 (Example 23) in the form of gelatine-coated pills containing 400 mg of active ingredient administered at the rate of 2 such pills twice daily has given good results in the treatment of circulatory complaints and especially of lipid disturbances.
CRL 40,386 (Example 8) has been used in man for the treatment of hyperlipidaemia in the form of gelatine-coated pills each containing 300 mg of active ingredient at the rate of 2 to 6 such pills per day.

[3] = Reduction of lipids and cholesterol in rats treated orally; assay type: in vivo; settings: for inhibition in vivo at 50 mg/kg: oral 50 mg/kg; for inhibition in vivo at 20 mg/kg: po, 120 h, 5 days
[4] = system: platelets (aggregation induced by collagen); assay: Anti-aggregation action, platelet aggregation induced by collagen; assay type: in vivo, male Wistar rats; settings: 4 days
Description: (a) by collagen: the inhibition of aggregation (which corresponds to the % transmission), the latency period and the speed; and
In Table IV which follows have been shown the results relating to the anti-aggregation action of some products on the blood of male Wistar rats, the aggregating agents used being collagen/acetic acid diluted 1/10, and ADP at 1 μM.

[5] = Hypo-lipidaemic and hypo-cholesterolaemic action in rats on hyper-lipid diet; assay type: in vivo, Wistar rats; settings: hyper-lipid diet; for inhibition at 10 mg/kg / inhibition at 25 mg/kg / inhibition at 100 mg/kg: Rattus norvegicus, normal diet = 100%, hyper-lipid diet = 0%
Excerpt: A. a batch of rats receiving a normal diet (percentage inhibition=100%);
B. a batch of rats receiving a hyper-lipid diet (percentage inhibition=0%);
C. a batch of rats receiving the hyper-lipid diet B with a daily dose, of 0.1 g/kg, of a reference product having a lipidaemia-normalising action, namely Lipavlon [ethyl 2-(p-chlorophenoxy)-2-methyl-propionate];
D. a batch of rats receiving the hyper-lipid diet B with a daily dose, of 0.1 g/kg, of another product having a lipidaemia-normalising action, namely LL 1558 [1,10-bis-(2-hydroxyethyl-thio)-decane]; and
E. a batch of rats receiving the hyper-lipid diet B with a daily dose of 10 mg/kg and 25 mg/kg, where necessary, higher doses.
In Table III which follows have been shown the results relating to CRL 40,201 (the product of Example 17) and CRL 40,202 (the product of Example 18) in respect of the hypo-lipidaemic action and hypo-cholesterolaemic action.

[6] = Hypo-lipidaemic and hypo-cholesterolaemic action of other products (Table V); assay type: in vivo, rats; settings: Rattus norvegicus, 96 h; for change in vivo at 10 mg/kg: oral 10 mg/kg for 4 days; for change in vivo at 100 mg/kg: oral 100 mg/kg for 4 days
Excerpt: The results of the anti-aggregation test and of the hypo-[…] action and hypo-cholesterolaemic action tests of other products of the invention have been […] Table V which follows, the code used being the following (for each dose shown): […]

[7] = capsules or gelatine-coated pills of 500 mg, 2 to 4 per day
[8] = oral daily dose 0.010 g/kg, read-out: Total cholesterol % inhibition
[9] = oral daily dose 0.010 g/kg, read-out: Total lipids % inhibition
[10] = oral daily dose 0.025 g/kg, read-out: Total cholesterol % inhibition
[11] = oral daily dose 0.025 g/kg, read-out: Total lipids % inhibition
[12] = oral 200 mg/kg, collagen/acetic acid diluted 1/10
[13] = read-out: Total lipids (change)
[14] = oral daily dose 0.1 g/kg, read-out: Total cholesterol % inhibition
[15] = oral daily dose 0.1 g/kg, read-out: Total lipids % inhibition

solubility in water (in words) [1]: water-insoluble
SMILES: CC(CO)Sc1ccc(Oc2ccc(Cl)cc2)cc1 (racemic) [CRL 40,282, (±)-2-[4-(4-Chlorophenoxy)-phenylthio]-1-propanol]
Anti-aggregation action ([2]; oral 100 mg/kg for 4 days): +

SMILES: CC(CNCCO)Sc1ccc(Oc2ccc(Cl)cc2)cc1 (racemic) [CRL 40,283, (±)-N-Hydroxyethyl-2-[4-(4-chlorophenoxy)-phenylthio]-1-propylamine]
solubility in aqueous hydrochloric acid solution (in words) ([1]; aqueous hydrochloric acid, pH 3 to pH 7): soluble in an aqueous hydrochloric acid solution at between pH 3 and pH 7
Anti-aggregation action ([2]; oral 200 mg/kg for 4 days): +

SMILES: CC(CO)Oc1ccc(Oc2ccc(Cl)cc2)cc1 (racemic) [CRL 40,300, (±)-2-[4-(4-Chlorophenoxy)-phenoxy]-1-propanol]
solubility in water (in words) [1]: insoluble in water
Anti-aggregation action ([2]; oral 100 mg/kg for 4 days): +

SMILES: CC(COC(=O)C(C)(C)Oc1ccc(Sc2ccc(Cl)cc2)cc1)SCCCCCCCCCCSC(C)COC(=O)C(C)(C)Oc1ccc(Sc2ccc(Cl)cc2)cc1 (racemic) [CRL 40,387, (±)-2,15-Dimethyl-3,14-dithia-1,16-hexadecyl di-{2-[p-(p-chlorophenylthio)-phenoxy]-2-methylpropionate}]
effect on the blood platelet aggregation ([2]; 10, 20 and 50 mg/kg orally): no effect

SMILES: CC(COC(=O)COc1ccc(Sc2ccc(Cl)cc2)cc1)SCCCCCCCCCCSC(C)COC(=O)COc1ccc(Sc2ccc(Cl)cc2)cc1 (racemic) [CRL 40,389, (±)-2,15-Dimethyl-3,14-dithia-1,16-hexadecyl di-[p-(p-chlorophenylthio)-phenoxy-acetate]]
tolerance in man (Clinical tests in man; [7]): well tolerated
treatment of hyperlipidaemia (Clinical tests in man; [7]): efficient
inhibition in vivo at 50 mg/kg ([3]; Rattus norvegicus, 96 h, 4 days, read-out: reduction in the cholesterol): 35%
inhibition in vivo at 50 mg/kg ([3]; Rattus norvegicus, 96 h, 4 days, read-out: reduction in the lipids): 35%

SMILES: CC(COC(=O)CSc1ccc(Oc2ccc(Cl)cc2)cc1)SCCCCCCCCCCSC(C)COC(=O)CSc1ccc(Oc2ccc(Cl)cc2)cc1 (racemic) [CRL 40,405, (±)-2,15-Dimethyl-3,14-dithia-1,16-hexadecyl di-[p-(p-chlorophenoxy)-phenylthio-acetate]]
inhibition in vivo at 100 mg/kg ([3]; Rattus norvegicus, 96 h, oral 100 mg/kg, 4 days): 44%
inhibition in vivo at 20 mg/kg ([3]; Rattus norvegicus, read-out: reduction in the cholesterol): 30%
inhibition in vivo at 20 mg/kg ([3]; Rattus norvegicus, read-out: reduction in the lipids): 12%
reduction in the (total) lipids ([3]; oral 100 mg/kg, 4 days): 35%
% transmission (collagen test) ([4]; 100 mg/kg): -10%
latency time (collagen test) ([4]; 100 mg/kg, unit not given): +10
speed (collagen test) ([4]; 100 mg/kg, unit not given): -17

SMILES: CC(COC(=O)C(C)(C)Sc1ccc(Oc2ccc(Cl)cc2)cc1)SCCCCCCCCCCSC(C)COC(=O)C(C)(C)Sc1ccc(Oc2ccc(Cl)cc2)cc1 (racemic) [CRL 40,414, (±)-2,15-Dimethyl-3,14-dithia-1,16-hexadecyl di-{2-[p-(p-chlorophenoxy)-phenylthio]-2-methylpropionate}]
treatment of hyperlipidaemia (Clinical tests in man; gelatine-coated pills of 300 mg, 3 per day): used with success
reduction in the (total) lipids ([3]; oral 100 mg/kg, 4 days): 12%

SMILES: CC(C)(Oc1ccc(Sc2ccc(Cl)cc2)cc1)C(=O)O [CRL 40,201, 4-(4-Chlorophenylthio)-phenoxyisobutyric acid]
inhibition at 10 mg/kg [5, 8]: 35%
inhibition at 10 mg/kg [5, 9]: 30%
inhibition at 25 mg/kg [5, 10]: 48%
inhibition at 25 mg/kg [5, 11]: 45%
Total cholesterol ([5]; oral daily dose 0.010 g/kg): 3.28 g/L
Total lipids ([5]; oral daily dose 0.010 g/kg): 9 g/L
Total cholesterol ([5]; oral daily dose 0.025 g/kg): 2.8 g/L
Total lipids ([5]; oral daily dose 0.025 g/kg): 7.7 g/L

SMILES: CC(C)(Oc1ccc([S+]([O-])c2ccc(Cl)cc2)cc1)C(=O)O (stereo not shown) [CRL 40,202, 4-(4-Chlorophenylsulphinyl)-phenoxyisobutyric acid]
inhibition at 10 mg/kg [5, 8]: 26%
inhibition at 10 mg/kg [5, 9]: 27%
inhibition at 25 mg/kg [5, 10]: 59%
inhibition at 25 mg/kg [5, 11]: 53%
Total cholesterol ([5]; oral daily dose 0.010 g/kg): 3.64 g/L
Total lipids ([5]; oral daily dose 0.010 g/kg): 9.28 g/L
Total cholesterol ([5]; oral daily dose 0.025 g/kg): 2.38 g/L
Total lipids ([5]; oral daily dose 0.025 g/kg): 7.05 g/L

solubility in water (in words) [1]: insoluble in water
SMILES: CC(C)(Oc1ccc(Sc2ccc(Cl)cc2)cc1)C(=O)NCCO [CRL 40,251, N-Hydroxyethyl-4-(4-chlorophenylthio)-phenoxy-isobutyramide]
change in aggregation, collagen, latency period [4, 12]: +23%
change in aggregation, collagen, speed [4, 12]: -21%

solubility in water (in words) [1]: insoluble in water
SMILES: CC(C)(Oc1ccc(Sc2ccc(Cl)cc2)cc1)C(=O)OCCSCCCCCCCCCCSCCOC(=O)C(C)(C)Oc1ccc(Sc2ccc(Cl)cc2)cc1 [CRL 40,253, 3,14-Dithia-1,16-hexadecyl di-[4-(4-chlorophenylthio)-phenoxyisobutyrate]]
change in vivo at 10 mg/kg ([6]; read-out: Cholesterol (change)): -40%
change in vivo at 10 mg/kg [6, 13]: -40%

solubility in water (in words) [1]: insoluble in water
SMILES: CC(C)(CO)Oc1ccc(Oc2ccc(Cl)cc2)cc1 [CRL 40,310, 4-(4-Chlorophenoxy)-phenoxy-isobutanol]
change in vivo at 100 mg/kg ([6]; read-out: Cholesterol (change)): -32%
change in vivo at 100 mg/kg [6, 13]: -20%

solubility in water (in words) [1]: insoluble in water
SMILES: CC(C)(COS(C)(=O)=O)Oc1ccc(Oc2ccc(Cl)cc2)cc1 [CRL 40,312, 4-(4-Chlorophenoxy)-phenoxy-isobutyl mesylate]
Anti-aggregation action ([2]; oral 100 mg/kg for 4 days): +

solubility in hot water (in words) ([1]; hot water, hydrochloride): soluble in hot water
SMILES: Clc1ccc(Oc2ccc(OCC3=NCCN3)cc2)cc1 [CRL 40,322, 2-[4-(4-Chlorophenoxy)-phenoxy]-methyl-2-imidazoline hydrochloride]
Anti-aggregation action ([2]; oral 100 mg/kg for 4 days): +

SMILES: CCN(CC)CCOc1ccc(Oc2ccc(Cl)cc2)cc1.Cl [CRL 40,330, N,N-Diethyl-2-[4-(4-chlorophenoxy)-phenoxy]-ethylamine hydrochloride]
change in vivo at 100 mg/kg ([6]; read-out: Cholesterol (change)): -13%
change in vivo at 100 mg/kg [6, 13]: -13%
Anti-aggregation action ([2]; oral 100 mg/kg for 4 days): +

solubility in water (in words) [1]: insoluble in water
SMILES: CC(C)(O)COc1ccc(Oc2ccc(Cl)cc2)cc1 [CRL 40,332, 1-[4-(4-Chlorophenoxy)-phenoxy]-2-methyl-2-propanol]
Anti-aggregation action ([2]; oral 100 mg/kg for 4 days): +

SMILES: O=C(O)COc1ccc(Oc2ccc(Cl)cc2)cc1 [CRL 40,333, 4-(4-Chlorophenoxy)-phenoxyacetic acid]
solubility in water (in words) [1]: insoluble in water
change in vivo at 100 mg/kg ([6]; read-out: Cholesterol (change)): -20%
change in vivo at 100 mg/kg [6, 13]: -24%
Anti-aggregation action ([2]; oral 100 mg/kg for 4 days): ++

solubility in water (in words) [1]: soluble in water
SMILES: CCN(CC)CCNC(=O)COc1ccc(Oc2ccc(Cl)cc2)cc1.Cl [CRL 40,334, N-(2-Diethylaminoethyl)-4-(4-chlorophenoxy)-phenoxy-acetamide hydrochloride]
change in vivo at 100 mg/kg ([6]; read-out: Cholesterol (change)): -17%
change in vivo at 100 mg/kg [6, 13]: -17%
Anti-aggregation action ([2]; oral 100 mg/kg for 4 days): +++

SMILES: OCCSCCCCCCCCCCSCCO [LL 1558, 1,10-bis-(2-hydroxyethyl-thio)-decane, reference compound]
inhibition at 100 mg/kg [5, 14]: 63%
inhibition at 100 mg/kg [5, 15]: 54%
Total cholesterol ([5]; oral daily dose 0.1 g/kg): 2.22 g/L
Total lipids ([5]; oral daily dose 0.1 g/kg): 7 g/L

SMILES: CCOC(=O)C(C)(C)Oc1ccc(Cl)cc1 [Lipavlon, ethyl 2-(p-chlorophenoxy)-2-methyl-propionate, reference compound]
inhibition at 100 mg/kg [5, 14]: 11%
inhibition at 100 mg/kg [5, 15]: 14%
Total cholesterol ([5]; oral daily dose 0.1 g/kg): 4.18 g/L
Total lipids ([5]; oral daily dose 0.1 g/kg): 10.4 g/L

Reference: patent US4156011A, “Sulphur- and oxygen-containing diaryl compounds” (priority 1974, dated 1979)
